Data published in PMC10997755, “Discovery of a small-molecule inhibitor that traps Polθ on DNA and synergizes with PARP inhibitors” (Nature Communications, 2024).
Where two headings read alike, the source gives them in different places. Blank lines part the entries; values can stand above or below the molecule they belong to.

Columns and labels:
Polθ-pol = target: T1, Polθ-pol (Homo sapiens, UniProt O75417); assay: Cy5 fluorescence Polθ-pol DNA synthesis (strand displacement) IC50 assay; assay type: biochemical; conditions: Polθ-pol DNA synthesis, Cy5 fluorescence
T1 construct: purified recombinant human Polθ-pol (comprising amino acid residues 1792–2590); made in house
T1 sequence (O75417 1792-2590): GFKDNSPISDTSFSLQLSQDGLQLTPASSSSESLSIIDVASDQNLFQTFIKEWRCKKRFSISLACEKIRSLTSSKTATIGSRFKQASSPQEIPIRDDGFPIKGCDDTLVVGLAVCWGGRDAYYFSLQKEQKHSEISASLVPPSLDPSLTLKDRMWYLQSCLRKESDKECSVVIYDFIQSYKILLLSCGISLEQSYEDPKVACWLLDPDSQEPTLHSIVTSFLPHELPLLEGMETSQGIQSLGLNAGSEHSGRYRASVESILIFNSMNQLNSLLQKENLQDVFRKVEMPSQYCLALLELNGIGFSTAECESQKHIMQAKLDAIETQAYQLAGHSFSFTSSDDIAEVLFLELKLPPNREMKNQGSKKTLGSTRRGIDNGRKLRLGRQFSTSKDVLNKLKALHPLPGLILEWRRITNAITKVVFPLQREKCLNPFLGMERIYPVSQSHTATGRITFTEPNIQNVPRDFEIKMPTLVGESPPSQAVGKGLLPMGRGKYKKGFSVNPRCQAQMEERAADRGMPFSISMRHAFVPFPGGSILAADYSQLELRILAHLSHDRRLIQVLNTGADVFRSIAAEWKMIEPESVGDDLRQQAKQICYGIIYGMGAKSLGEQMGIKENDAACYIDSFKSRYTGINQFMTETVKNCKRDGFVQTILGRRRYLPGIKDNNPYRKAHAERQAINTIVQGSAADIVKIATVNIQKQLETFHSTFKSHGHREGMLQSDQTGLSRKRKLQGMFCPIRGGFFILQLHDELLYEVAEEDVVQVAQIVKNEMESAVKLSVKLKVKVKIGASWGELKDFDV
Protocol: The following Cy5 fluorescence assay was used to measure the ability of compounds to inhibit Polθ-pol in vitro. The fluorescent based assay was performed as follows: 60 nM of the pre-annealed primer-template containing a 5’ Cy5 fluorophore conjugated template strand (RP486-Cy5), a downstream complementary oligo conjugated with a 3’ Iowa BlackReg Dark quencher (RP343BHQRQ) and a primer strand (RP469D) was mixed with 50 uM 2'-deoxyribonucleoside triphosphates (dNTPs), 0.1 mg/mL Bovine serum albumin (BSA), 0.01% NP-40, 10% glycerol, 1 mM dithiothreitol (DTT), 10 mM MgCl2, 25 mM TrisHCl pH 7.8 in the presence of 2.5% DMSO with or without various concentrations (7-point dilution series) of Polθ-pol small-molecule inhibitors at 37 °C in a volume of 40 μL. The reactions were initiated by the addition of 5 nM of purified recombinant human Polθ-pol (comprising amino acid residues 1792–2590). The reactions were terminated by the addition of 20 mM EDTA after 18 min, and the Cy5 fluorescence intensity was measured using a CLARIOstar (BMG Labtech) plate reader. Reactions were performed in triplicate and the % inhibition at each concentration of the respective compound of Formula I was based on the mean.

DLD1 Parental cells = assay: Clonogenic assay; assay type: cell-based; conditions: DLD1 Parental
Protocol: (§1) Cells were plated on six or twelve or twenty-four well plates. In six well plate, 1000 cells/ well of BRCA2 -/-, BRCA1 -/-, PALB2 mut and 500 cells/ well of wildtype pair was plated; In twelve well plate, 600 cells/ well of BRCA2 -/-, BRCA1 -/-, PALB2 mut and 400 cells/ well of wildtype pair was plated; In twenty-four well plate, 500 cells/ well of BRCA2 -/-, BRCA1 -/-, PALB2 mut and 300 cells/ well of wildtype pair was plated. For MEFs, 300 cells per well in six-well plate were seeded. The medium was replaced every 2 days until the colonies were ready for staining in 10–12 days. For staining: Medium was removed from plates, and cells were rinsed with PBS. Fixation was carried out with—Water: Ethanol: Acetic acid (5:4:1) for 30 min followed by staining of colonies with 0.5% crystal violet in Water: Ethanol (3:2) for 2 h at room temperature. The plates were rinsed with water and left for drying overnight at room temperature. Colonies were then counted and IC50 was calculated using results from 3 or more independent experiments. Response curves are shown as mean colony formation +/- S.E.M.

DLD1 BRCA2 -/- cells = assay: Clonogenic assay; assay type: cell-based; conditions: for Average (colonies): DLD1 BRCA2 -/-; for IC50: DLD1 cells, label beside BRCA2-null curve, read-out: IC50 clonogenic survival; for potency in BRCA2-null cells compared with RTx-161: clonogenic survival
Protocol: as §1
Data are expressed as mean ± SEM from at least 3 independent experiments with triplicates for each condition unless stated otherwise. When conducting comparison between two groups, two-tailed unpaired t-test was used. Significance was assumed at p < 0.05. Asterisks in the figures indicate significance, ^∗p < 0.05, ^∗∗p < 0.01, ^∗∗∗p < 0.001. Combenefit® software version 2.021 was used to perform synergy analyses for drug combinations between RTx-161 and PARPi. GraphPad Prism 9 software was used to calculate IC50.

IC50 (Polθ-pol): 11.4 nM
Structure (SMILES): Cc1cccc(N(C)C(=O)[C@@H]2[C@H](O)CCN2c2nc(C)cc(C(F)(F)F)c2C#N)c1 [ART558, reference compound]
Average (colonies) (DLD1 Parental cells; 0.1875 uM, block 1 of sheet): 47.5
Average (colonies) (DLD1 Parental cells; 0.1875 uM, block 2 of sheet): 42
Average (colonies) (DLD1 Parental cells; 0.1875 uM, block 3 of sheet): 77
Average (colonies) (DLD1 Parental cells; 0.375 uM, block 1 of sheet): 51
Average (colonies) (DLD1 Parental cells; 0.375 uM, block 2 of sheet): 61
Average (colonies) (DLD1 Parental cells; 0.375 uM, block 3 of sheet): 80
Average (colonies) (DLD1 Parental cells; 0.75 uM, block 1 of sheet): 39.5
Average (colonies) (DLD1 Parental cells; 0.75 uM, block 2 of sheet): 41.5
Average (colonies) (DLD1 Parental cells; 0.75 uM, block 3 of sheet): 76.5
Average (colonies) (DLD1 Parental cells; 1.5 uM, block 1 of sheet): 42.5
Average (colonies) (DLD1 Parental cells; 1.5 uM, block 2 of sheet): 44.5
Average (colonies) (DLD1 Parental cells; 1.5 uM, block 3 of sheet): 77.5
Average (colonies) (DLD1 Parental cells; 3 uM, block 1 of sheet): 58.5
Average (colonies) (DLD1 Parental cells; 3 uM, block 2 of sheet): 36.5
Average (colonies) (DLD1 Parental cells; 3 uM, block 3 of sheet): 78.5
Average (colonies) (DLD1 Parental cells; 6 uM, block 1 of sheet): 42.5
Average (colonies) (DLD1 Parental cells; 6 uM, block 2 of sheet): 59
Average (colonies) (DLD1 Parental cells; 6 uM, block 3 of sheet): 76.5
Average (colonies) (DLD1 Parental cells; 12 uM, block 2 of sheet): 57.5
Average (colonies) (DLD1 Parental cells; 12 uM, block 3 of sheet): 79
Average (colonies) (DLD1 BRCA2 -/- cells; 0.1875 uM, block 1 of sheet): 21.5
Average (colonies) (DLD1 BRCA2 -/- cells; 0.1875 uM, block 2 of sheet): 41.5
Average (colonies) (DLD1 BRCA2 -/- cells; 0.1875 uM, block 3 of sheet): 18
Average (colonies) (DLD1 BRCA2 -/- cells; 0.375 uM, block 1 of sheet): 24.5
Average (colonies) (DLD1 BRCA2 -/- cells; 0.375 uM, block 2 of sheet): 37.5
Average (colonies) (DLD1 BRCA2 -/- cells; 0.375 uM, block 3 of sheet): 18.5
Average (colonies) (DLD1 BRCA2 -/- cells; 0.75 uM, block 1 of sheet): 10.5
Average (colonies) (DLD1 BRCA2 -/- cells; 0.75 uM, block 2 of sheet): 31
Average (colonies) (DLD1 BRCA2 -/- cells; 0.75 uM, block 3 of sheet): 18.5
Average (colonies) (DLD1 BRCA2 -/- cells; 1.5 uM, block 1 of sheet): 15.5
Average (colonies) (DLD1 BRCA2 -/- cells; 1.5 uM, block 2 of sheet): 30.5
Average (colonies) (DLD1 BRCA2 -/- cells; 1.5 uM, block 3 of sheet): 20.5
Average (colonies) (DLD1 BRCA2 -/- cells; 3 uM, block 1 of sheet): 14
Average (colonies) (DLD1 BRCA2 -/- cells; 3 uM, block 2 of sheet): 22.5
Average (colonies) (DLD1 BRCA2 -/- cells; 3 uM, block 3 of sheet): 15
Average (colonies) (DLD1 BRCA2 -/- cells; 6 uM, block 1 of sheet): 6.5
Average (colonies) (DLD1 BRCA2 -/- cells; 6 uM, block 2 of sheet): 28.5
Average (colonies) (DLD1 BRCA2 -/- cells; 6 uM, block 3 of sheet): 8
Average (colonies) (DLD1 BRCA2 -/- cells; 12 uM, block 2 of sheet): 11.5
Average (colonies) (DLD1 BRCA2 -/- cells; 12 uM, block 3 of sheet): 6
IC50 (DLD1 BRCA2 -/- cells; Homo sapiens, DLD-1): ~2500 nM
potency in BRCA2-null cells compared with RTx-161 (DLD1 BRCA2 -/- cells): slightly reduced potency

IC50 (Polθ-pol): 6.9 nM
Structure (SMILES): Nc1ccc(C#CCN(C(=O)Cc2ncc(C(F)(F)F)cc2C(F)(F)F)c2ccc(F)cc2)nn1 [RP6685, reference compound]
Average (colonies) (DLD1 Parental cells; 0.375 uM, block 1 of sheet): 72.6667
Average (colonies) (DLD1 Parental cells; 0.375 uM, block 2 of sheet): 75
Average (colonies) (DLD1 Parental cells; 0.375 uM, block 3 of sheet): 87
Average (colonies) (DLD1 Parental cells; 0.375 uM, block 4 of sheet): 63.6667
Average (colonies) (DLD1 Parental cells; 0.75 uM, block 1 of sheet): 55.3333
Average (colonies) (DLD1 Parental cells; 0.75 uM, block 2 of sheet): 76
Average (colonies) (DLD1 Parental cells; 0.75 uM, block 3 of sheet): 85.6667
Average (colonies) (DLD1 Parental cells; 0.75 uM, block 4 of sheet): 65.6667
Average (colonies) (DLD1 Parental cells; 1.5 uM, block 1 of sheet): 59.3333
Average (colonies) (DLD1 Parental cells; 1.5 uM, block 2 of sheet): 75
Average (colonies) (DLD1 Parental cells; 1.5 uM, block 3 of sheet): 80
Average (colonies) (DLD1 Parental cells; 1.5 uM, block 4 of sheet): 63.3333
Average (colonies) (DLD1 Parental cells; 3 uM, block 1 of sheet): 73
Average (colonies) (DLD1 Parental cells; 3 uM, block 2 of sheet): 75.6667
Average (colonies) (DLD1 Parental cells; 3 uM, block 3 of sheet): 85.6667
Average (colonies) (DLD1 Parental cells; 3 uM, block 4 of sheet): 65.6667
Average (colonies) (DLD1 Parental cells; 6 uM, block 1 of sheet): 74
Average (colonies) (DLD1 Parental cells; 6 uM, block 2 of sheet): 74.3333
Average (colonies) (DLD1 Parental cells; 6 uM, block 3 of sheet): 84
Average (colonies) (DLD1 Parental cells; 6 uM, block 4 of sheet): 64
Average (colonies) (DLD1 Parental cells; 12 uM, block 1 of sheet): 60.6667
Average (colonies) (DLD1 Parental cells; 12 uM, block 2 of sheet): 75
Average (colonies) (DLD1 Parental cells; 12 uM, block 3 of sheet): 81
Average (colonies) (DLD1 Parental cells; 12 uM, block 4 of sheet): 64.3333
Average (colonies) (DLD1 BRCA2 -/- cells; 0.375 uM, block 1 of sheet): 44.6667
Average (colonies) (DLD1 BRCA2 -/- cells; 0.375 uM, block 2 of sheet): 14.6667
Average (colonies) (DLD1 BRCA2 -/- cells; 0.375 uM, block 3 of sheet): 52
Average (colonies) (DLD1 BRCA2 -/- cells; 0.375 uM, block 4 of sheet): 52
Average (colonies) (DLD1 BRCA2 -/- cells; 0.75 uM, block 1 of sheet): 42.3333
Average (colonies) (DLD1 BRCA2 -/- cells; 0.75 uM, block 2 of sheet): 10.3333
Average (colonies) (DLD1 BRCA2 -/- cells; 0.75 uM, block 3 of sheet): 48.3333
Average (colonies) (DLD1 BRCA2 -/- cells; 0.75 uM, block 4 of sheet): 49.6667
Average (colonies) (DLD1 BRCA2 -/- cells; 1.5 uM, block 1 of sheet): 34
Average (colonies) (DLD1 BRCA2 -/- cells; 1.5 uM, block 2 of sheet): 7.333
Average (colonies) (DLD1 BRCA2 -/- cells; 1.5 uM, block 3 of sheet): 43.6667
Average (colonies) (DLD1 BRCA2 -/- cells; 1.5 uM, block 4 of sheet): 41.6667
Average (colonies) (DLD1 BRCA2 -/- cells; 3 uM, block 1 of sheet): 34.3333
Average (colonies) (DLD1 BRCA2 -/- cells; 3 uM, block 2 of sheet): 4
Average (colonies) (DLD1 BRCA2 -/- cells; 3 uM, block 3 of sheet): 33.6667
Average (colonies) (DLD1 BRCA2 -/- cells; 3 uM, block 4 of sheet): 36.3333
Average (colonies) (DLD1 BRCA2 -/- cells; 6 uM, block 1 of sheet): 30
Average (colonies) (DLD1 BRCA2 -/- cells; 6 uM, block 2 of sheet): 4
Average (colonies) (DLD1 BRCA2 -/- cells; 6 uM, block 3 of sheet): 31
Average (colonies) (DLD1 BRCA2 -/- cells; 6 uM, block 4 of sheet): 28
Average (colonies) (DLD1 BRCA2 -/- cells; 12 uM, block 1 of sheet): 25
Average (colonies) (DLD1 BRCA2 -/- cells; 12 uM, block 2 of sheet): 2
Average (colonies) (DLD1 BRCA2 -/- cells; 12 uM, block 3 of sheet): 21.3333
Average (colonies) (DLD1 BRCA2 -/- cells; 12 uM, block 4 of sheet): 9.333
IC50 (DLD1 BRCA2 -/- cells): ~4500 nM
potency in BRCA2-null cells compared with RTx-161 (DLD1 BRCA2 -/- cells): slightly reduced potency
